Patent US20230218573A1, “INDOLE COMPOUNDS FOR THE TREATMENT OF NEURODEGENERATIVE DISEASES” (GALYAN BIO, INC., priority 2020, published 2023)
“Also recorded” adds a separate entry of the source.

Assays:
[1] = Modified PAMPA with brain lipids, blood brain barrier permeation by LC-MS-MS; type: in vitro ADME
Experimental: Compounds from the Biacore screening were analyzed in a modified Parallel Artificial Permeation Assay (PAMPA) assay for their ability to permeate the blood brain barrier. The filter material of a 96-well microplate is impregnated with brain lipids (Di, L. et al., Eur. J. Med. Chem. 2003 Mar;38(3):223-232). The test compounds were added to the donor compartment. […] Based on these permeation data, the drugs were classified as blood brain barrier permeating (BBB+) with a flux rate >50% or non-permeating (BBB-) with a flux rate <50%.

[2] = tested on: Htt14A2.6 PC12 cells (mHttex1-GFP); experiment: mHTT aggregation by filter retardation assay in Htt14A2.6 PC12 cells; type: cell-based; conditions: 24 hour treatment, different concentrations
Experimental: Compounds from the Biacore screening were selected for measurement of aggregation in a cell model Htt14A2.6 PC12. Htt14A2.6 PC12 cells express a GFP- tagged 97Q mHtt exon 1 fusion protein (mHttex1-GFP) in the presence of ponasterone A. Htt14A2.6 PC12 cells were grown in medium containing 5 µM ponasterone A for 20 hours prior to treatment with the compounds. Htt14A2.6 PC12 cells were plated at 50~60% confluency. Compound 22 was tested at a final concentration of 80 nM, 400 nM and 10 µM in cell culture medium for 24 hours. Htt14A2.6 PC12 cells were harvested, rinsed, homogenized in cold phosphate-buffered saline containing protease inhibitor cocktail, and centrifuged at 16000 g for 30 min at 4° C. twice. About 25 µg total protein of each sample was resolved in 8% SDS PAGE, transferred onto PVDF membrane, blotted with an anti-GFP antibody, and visualized by ECL detection. mHTT aggregates were quantified from the cell lysates by filter retardation assay (Wanker, E.E., et al., Methods Enzymol (1999); 309: 375-386).

[3] = tested on: STHdh 111/111 striatal cells; experiment: Cell viability (CellTiter Glo) of heat shocked STHdh 111/111 striatal cells; type: cell-based, mouse; conditions: Mus musculus, STHdh 111/111; 10 µM; 48 hours treatment; read-out: Cell Viability striatal cells 3h heat shocked
Experimental: Cell culture - ST HDH Q111/111 (CH00095, Coriell Institute) striatal derived cell line were grown at 33° C. in DMEM (Sigma-Aldrich), supplemented with 10% fetal bovine serum (FBS), 1% Penicillin-Streptomycin (ThermoFisher Scientific), and 0.4 mg/ml G418 (Geneticin; Invitrogen). ST HDH Q111/111 are mouse striatal cells with polyQ length of 1111.
(§1) Pre-Treatment of striatal cell line - First the medium was removed and new DMEM (DMEM, high glucose, HEPES, no phenol red) medium, supplemented with 10% fetal bovine serum (FBS), 1% Penicillin-Streptomycin, containing 10 µM compound was added. The cells were incubated at 33° C. for 24 hours.
(§2) Heat shock - Cells were heat shocked for 3 hours at 41° C.
(§3) Treatment - Medium was removed and new DMEM (DMEM, high glucose, HEPES, no phenol red) medium, supplemented with 1% fetal bovine serum (FBS), 1% Penicillin-Streptomycin, containing 10 µM compound was added. The cells were incubated at 33° C. for 48 hours.
Cell Viability - Cell viability was measured according to manufacturer recommendations with CellTiter Glo (Promega). 96-well plates for used either for cell viability determination or cell staining.

Mur46 = conditions: 0.1 mM compound concentration
Experimental: MurTRX, Mur 16 and Mur46 Protein Purification - Proteins were loaded onto IMAC resin (ThermoFisher Scientific HisPur) and eluted in 200 mM imidazole, purified by gel filtration FPLC (HiLoad superdex-200, 26/60; GE Life sciences) and concentrated using 3 kDa cut off Vivaspin 20 PES centrifugal concentrators (Sartorius AG). Proteins were biotinylated using a 1:0.5 molar ratio of EZ-link™ Sulfo-NHS-LC-LC-Biotin (ThermoFisher Scientific) and thoroughly dialysed against PBS prior to Biacore coupling.
A customized biotin capture chip using NeutrAvidin as the capture ligand was created for this assay. To obtain high enough ligand density on the sensor chip surface, NeutrAvidin (Thermoscientific Pierce, Waltham, MA USA) was immobilised on all four sensor chip surfaces to a level of approximately 20,000 RU.
Capture of the Mur ligands to NeutrAvidin - Biotinylated proteins were diluted in HBS EP+ running buffer and captured on the sensor chip surface. Mur46 was coupled to the sensor chip first. After saturating FC3 with Mur46, target response levels for Mur16 and MurTRX were calculated based on their respective molecular weights. […]
Analog Screening-Methods - Analog or derivative compounds from the secondary screen were determined and were used in an analog Biacore SPR screen. […]

mHTT [4] = target: T1, mHTT (Mus musculus, UniProt P42859, DEL28-30/G47A/INS49LLPQPQPP/INS60VA/L56P/P40L); experiment: Diffuse mHTT levels in heat shocked STHdh 111/111 striatal cells by immunocytochemistry; conditions: 48 h, read-out: mHTT after treatment
Experimental: as §1, §2, §3
Staining - Cells were permeabilized with 0.3% Triton X-100 in 4° C. PBS (pH 7.4 from ThermoFisher) for 10 minutes. Then the cells were washed two times with 4° C. PBS. Subsequently, cells are blocked with 3% NGS (normal goat serum from Thermo Fisher) in 4° C. PBS for 1 hour. Cells were incubated with primary antibodies in blocking buffer (PBS, 3% NGS, 0.02% NaN3) over night at 4° C. Primary antibodies were mouse antipolyglutamine monoclonal antibody 3B5H10 (Sigma-Aldrich) at 1:250 dilution and Guinea Pig anti-MAP2 polyclonal antibody (Synaptic Systems) at 1:500 dilution. 3B5H10 binds to diffuse mHTT. Diffuse mHTT is a monomeric and small oligomeric mHTT.
Cells were washed 2 times with 4° C. PBS, and then incubated with secondary antibodies at 1:2000 dilution in blocking buffer for 1 hour at room temperature. […] Cells were washed 2 times with 4° C. PBS, and then the nuclei were counterstain with DAPI (ThermoFisher) for 10 min at room temperature in the dark. Cells were washed 2 times with 4° C. PBS, and then 4° C. PBS was added to cells and then images were acquired.
Fluorescence Imaging - Imaging sessions were performed on a confocal microscope system (Carl Zeiss Microscopy) equipped with a dual spinning disk unit (Yokogawa). All components of the imaging system were controlled via the ZEN 2 software suite (Carl Zeiss Microscopy). The laser lines used were 405 nm, 488 nm and 639 nm to excite DAPI or the respective fluorophores. […] Nested t test was performed to calculate the significance amongst repeated measurements using GraphPad Prism software.
ST HDH Q7/7 (CH00097, Coriell Institute) striatal derived cell line from a knock in transgenic mouse containing HTT loci with a humanized Exon 1 containing 7 polyglutamine repeats.
EC 50 value was determined with non-linear regression.

mHTT [5] = target: T1, mHTT; experiment: mHTT reduction in STHdh 111/111 cells exposed to autophagy inhibitor NH4Cl or UPS inhibitor MG132; type: cell-based; design: host or cells: ST HDH Q111/111 mouse striatal derived cell line; conditions: striatal cells exposed to MG132
Experimental: Invitrogen). […] Staining - Cells were permeabilized with 0.3% Triton X-100 in 4° C. PBS (pH 7.4 from ThermoFisher) for 10 minutes. Then the cells were washed two times with 4° C. PBS. Subsequently, cells are blocked with 3% NGS (normal goat serum from Thermo Fisher) in 4° C. PBS for 1 hour. […] Primary antibodies were mouse antipolyglutamine monoclonal antibody 3B5H10 (Sigma-Aldrich) at 1:250 dilution and Guinea Pig anti-MAP2 polyclonal antibody (Synaptic Systems) at 1:500 dilution. For LC3 staining primary antibodies were mouse anti-LC3 mab (5F10) (nanoTools) at 1:500 dilution and Guinea Pig anti-MAP2 polyclonal antibody (Synaptic Systems) at 1:500 dilution. Cells were washed 2 times with 4° C. PBS, and then incubated with secondary antibodies at 1:2000 dilution in blocking buffer for 1 hour at room temperature. […] Fluorescence Imaging - Imaging sessions were performed on a confocal microscope system (Carl Zeiss Microscopy) equipped with a dual spinning disk unit (Yokogawa). […] The fluorescence images obtained of the immunofluorescence labelled tissue sections were quantified with the help of the “Image Processing and Analysis in Java” or short ImageJ software distributed under the GNU General Public License by the NIH (Rueden, C.T. et al., BMC Bioinformatics. 2017 Nov 29;18(1):529), i.e. the edition used was the Fiji distribution (Schindelin, J. et al., Nature methods. 2012 Jun 28;9(7):676-82). […]

Exon1 Q46 = experiment: Circular dichroism of Exon1 Q46, predominantly α-helical state; type: biochemical; conditions: Exon1 Q46; conc. compound 1.62 µM
Experimental: Protein samples were diluted with buffer to 7.5 µM prior to Circular Dichroism (CD) measurements. Measurements were conducted at room temperature.
Four spectra at each measurement were taken every 1 nm from 200 to 260 nm, scanning at 50 nm/min with an averaging time of 1 sec. Spectra were obtained from samples in 20 mM phosphate, pH 7.4. Ten scans were averaged for each sample spectrum
Single-wavelength readings at 222 nm were obtained. After subtraction of the Trx contribution, the α-helical content of Httex1 was estimated from its mean residue ellipticity (MREHttex1) at 222 nm. This calculation was conducted as described by Bravo-Arredondo (Bravo-Arredondo, J.M. et al., J Biol Chem. 2018 Dec 21;293(51):19613-19623).
MRE Exon-1 […] and Q46 (Mean Residue Ellipticity) was measured every 1 sec for 300 sec; the 301 readings for each sample were averaged and MRE Trx subtracted. The number of amino acids in each sample to experience a change in helicity was estimated using a previously developed helix-coil transition model, which gave the change in fraction of helicity (ΔfHelix) by the following equation: […]
where MRE Exon1 Q26 or Q46 (MREHttex1 in the formula) describes the helix-coil transition, obtained from the difference between MRE Eon1 Q26 or Q46 at 222 nm of the fusion protein at the given temperature (in our case 37° C.) and the product of MRE Trx at 222 nm at the same temperature and the fraction of residues comprised by Trx in that particular construct, and
In order to calculate an equilibrium of the two states model, percent α-helicity was calculated using the relation of MREHttex1 = 0 and -34700 (deg cm^2 dmol^-1) for 0% and 100% helicity, respectively.
The CD measurements protocol for Compound 101 was the same as outlined above except that from 206 nm - 210 nm and 220 nm - 224 nm, the step size was 0.2 nm, and the bandwidth was 1 nm.

T1 sequence (P42859 with tags, fused parts or gaps DEL28-30/P40L/G47A/INS49LLPQPQPP/L56P/INS60VA): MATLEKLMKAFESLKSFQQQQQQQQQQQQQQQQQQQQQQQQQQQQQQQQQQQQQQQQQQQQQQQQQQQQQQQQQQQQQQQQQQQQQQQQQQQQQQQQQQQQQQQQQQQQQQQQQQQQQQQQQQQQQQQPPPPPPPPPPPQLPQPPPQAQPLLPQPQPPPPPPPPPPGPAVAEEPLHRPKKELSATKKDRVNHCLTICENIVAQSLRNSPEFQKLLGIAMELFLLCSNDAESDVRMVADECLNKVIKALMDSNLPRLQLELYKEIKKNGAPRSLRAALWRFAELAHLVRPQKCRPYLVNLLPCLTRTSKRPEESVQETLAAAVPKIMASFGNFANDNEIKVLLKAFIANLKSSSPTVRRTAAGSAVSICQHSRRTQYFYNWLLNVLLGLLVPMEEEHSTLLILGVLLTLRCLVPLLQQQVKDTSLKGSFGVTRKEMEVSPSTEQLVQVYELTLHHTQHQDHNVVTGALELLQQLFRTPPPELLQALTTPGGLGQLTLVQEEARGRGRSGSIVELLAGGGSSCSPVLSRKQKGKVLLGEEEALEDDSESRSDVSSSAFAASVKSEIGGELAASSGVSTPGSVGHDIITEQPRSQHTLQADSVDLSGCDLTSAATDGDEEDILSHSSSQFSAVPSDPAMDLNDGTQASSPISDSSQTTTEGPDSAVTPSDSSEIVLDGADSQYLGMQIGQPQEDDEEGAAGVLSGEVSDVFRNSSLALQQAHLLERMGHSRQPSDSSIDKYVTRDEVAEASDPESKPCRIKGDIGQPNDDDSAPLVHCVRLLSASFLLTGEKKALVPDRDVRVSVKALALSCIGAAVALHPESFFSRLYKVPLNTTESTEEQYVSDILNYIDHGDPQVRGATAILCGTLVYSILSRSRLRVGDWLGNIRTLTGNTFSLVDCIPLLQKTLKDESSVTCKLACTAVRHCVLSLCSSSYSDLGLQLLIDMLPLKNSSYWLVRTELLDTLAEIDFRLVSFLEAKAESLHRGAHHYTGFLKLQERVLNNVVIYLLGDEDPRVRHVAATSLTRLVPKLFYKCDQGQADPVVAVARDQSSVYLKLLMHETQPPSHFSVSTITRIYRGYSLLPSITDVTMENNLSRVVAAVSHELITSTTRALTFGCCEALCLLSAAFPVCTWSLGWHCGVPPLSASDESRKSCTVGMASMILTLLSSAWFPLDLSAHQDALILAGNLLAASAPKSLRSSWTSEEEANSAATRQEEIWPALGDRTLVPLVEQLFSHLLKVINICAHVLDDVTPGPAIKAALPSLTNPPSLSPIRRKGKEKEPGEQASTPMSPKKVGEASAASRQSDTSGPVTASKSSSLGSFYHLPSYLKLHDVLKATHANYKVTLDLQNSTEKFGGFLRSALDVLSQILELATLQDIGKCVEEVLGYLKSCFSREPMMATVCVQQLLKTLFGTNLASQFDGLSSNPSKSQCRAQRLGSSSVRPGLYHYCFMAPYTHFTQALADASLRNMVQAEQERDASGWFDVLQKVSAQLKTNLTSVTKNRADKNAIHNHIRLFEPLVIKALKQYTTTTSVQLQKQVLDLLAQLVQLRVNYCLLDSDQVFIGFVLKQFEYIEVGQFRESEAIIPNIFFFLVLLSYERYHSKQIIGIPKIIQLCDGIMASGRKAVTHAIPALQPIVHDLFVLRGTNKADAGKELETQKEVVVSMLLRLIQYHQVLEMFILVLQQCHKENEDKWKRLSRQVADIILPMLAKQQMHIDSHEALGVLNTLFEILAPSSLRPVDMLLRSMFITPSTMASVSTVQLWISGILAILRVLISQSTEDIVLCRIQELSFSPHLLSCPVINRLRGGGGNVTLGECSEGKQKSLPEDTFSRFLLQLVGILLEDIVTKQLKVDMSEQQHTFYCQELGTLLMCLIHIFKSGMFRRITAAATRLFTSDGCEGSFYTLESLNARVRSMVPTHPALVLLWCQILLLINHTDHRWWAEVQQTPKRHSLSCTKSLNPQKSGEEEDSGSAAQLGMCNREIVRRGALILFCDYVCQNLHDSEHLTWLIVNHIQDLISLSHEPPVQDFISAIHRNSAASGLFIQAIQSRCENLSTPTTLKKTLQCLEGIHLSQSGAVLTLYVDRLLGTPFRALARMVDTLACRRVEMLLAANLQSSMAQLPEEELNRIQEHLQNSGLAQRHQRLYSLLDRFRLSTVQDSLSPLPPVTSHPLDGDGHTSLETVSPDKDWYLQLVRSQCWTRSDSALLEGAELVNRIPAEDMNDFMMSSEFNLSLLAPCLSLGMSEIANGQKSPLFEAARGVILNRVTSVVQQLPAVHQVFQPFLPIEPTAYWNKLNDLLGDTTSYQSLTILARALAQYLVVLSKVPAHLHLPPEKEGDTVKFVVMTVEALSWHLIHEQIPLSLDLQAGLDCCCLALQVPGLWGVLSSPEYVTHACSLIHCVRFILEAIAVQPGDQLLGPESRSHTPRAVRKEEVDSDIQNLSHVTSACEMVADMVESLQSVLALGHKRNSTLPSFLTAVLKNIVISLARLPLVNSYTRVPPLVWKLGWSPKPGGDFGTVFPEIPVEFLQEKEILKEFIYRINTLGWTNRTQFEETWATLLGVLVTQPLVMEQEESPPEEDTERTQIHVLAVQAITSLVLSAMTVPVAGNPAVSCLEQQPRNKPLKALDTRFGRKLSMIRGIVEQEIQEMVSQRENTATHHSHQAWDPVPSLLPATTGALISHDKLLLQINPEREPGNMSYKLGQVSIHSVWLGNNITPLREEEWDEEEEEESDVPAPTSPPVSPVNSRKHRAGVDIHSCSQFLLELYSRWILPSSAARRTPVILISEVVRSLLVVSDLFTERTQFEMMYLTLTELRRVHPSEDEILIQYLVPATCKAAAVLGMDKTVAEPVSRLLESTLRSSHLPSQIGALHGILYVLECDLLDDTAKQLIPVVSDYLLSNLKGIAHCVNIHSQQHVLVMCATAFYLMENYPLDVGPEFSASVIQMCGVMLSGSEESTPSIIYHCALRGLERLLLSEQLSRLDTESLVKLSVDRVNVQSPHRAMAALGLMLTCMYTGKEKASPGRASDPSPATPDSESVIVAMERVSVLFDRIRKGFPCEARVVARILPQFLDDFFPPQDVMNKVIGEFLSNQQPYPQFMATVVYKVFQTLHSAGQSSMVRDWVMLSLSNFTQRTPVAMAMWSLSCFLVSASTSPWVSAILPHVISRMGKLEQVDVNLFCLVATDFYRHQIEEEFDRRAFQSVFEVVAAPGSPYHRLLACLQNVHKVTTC

Compound: Cc1[nH]c2ccc(C(=O)NCCN(C)C)cc2c1C [Compound 7]
- Classification [1]: BBB+ (blood brain barrier permeating (BBB+) with a flux rate >50%)
- recovery [1]: 88.5%
- reduction of mHTT aggregation (filter retardation) [2]: A reduction of aggregation of Htt14A2.6 PC12 was not observed; also recorded: did not show a reduction of aggregation
- viability at 10 µM [3]: 96%
- Biacore affinity (RU^2) (Mur46): 122 RU^2
- remaining activity at 10 µM (mHTT [4]): 45%

Compound: O=C(NCCN1CCC1)c1ccc2[nH]c3c(c2c1)CCCC3 [Compound 20]
- viability at 10 µM [3]: 118%
- mHTT reduction with MG132 in comparison to without MG132 (mHTT [5]): less

Compound: Cc1[nH]c2ccc(C(=O)NC3CCC(N(C)C)CC3)cc2c1C (centres unmarked) [Compound 101, N-(4-(dimethylamino)cyclohexyl)-2,3-dimethyl-1H-indole-5-carboxamide]
- viability at 10 µM [3]: 110%
- Fraction Helix fH (%) (Exon1 Q46): 19.0%

Compound: Cc1[nH]c2ccc(C(=O)N(C)CCN(C)C3CC3)cc2c1C [Compound 114]
- Biacore affinity (RU^2) (Mur46): 20 RU^2
